How the values were obtained:
[1] = biological target: native GABAB receptor, Pig (Sus scrofa, UniProt A0A480I1B8); conditions: Facklam & Bowery, 1993; cited from earlier work
[2] = biological target: T1, native GABAB receptor, Rat (Rattus norvegicus, UniProt Q9Z0U4); conditions: published results; cited from earlier work
T1 construct: host or cells: rat tissue preparations

[3] = biological target: hGABABR1a/GABABR2 receptor (CHO membranes) (Homo sapiens, UniProt O75899+Q9UBS5); assay: GTPγ35S activation assay
Chain of hGABABR1a/GABABR2 receptor (CHO membranes) (Q9UBS5 20-961): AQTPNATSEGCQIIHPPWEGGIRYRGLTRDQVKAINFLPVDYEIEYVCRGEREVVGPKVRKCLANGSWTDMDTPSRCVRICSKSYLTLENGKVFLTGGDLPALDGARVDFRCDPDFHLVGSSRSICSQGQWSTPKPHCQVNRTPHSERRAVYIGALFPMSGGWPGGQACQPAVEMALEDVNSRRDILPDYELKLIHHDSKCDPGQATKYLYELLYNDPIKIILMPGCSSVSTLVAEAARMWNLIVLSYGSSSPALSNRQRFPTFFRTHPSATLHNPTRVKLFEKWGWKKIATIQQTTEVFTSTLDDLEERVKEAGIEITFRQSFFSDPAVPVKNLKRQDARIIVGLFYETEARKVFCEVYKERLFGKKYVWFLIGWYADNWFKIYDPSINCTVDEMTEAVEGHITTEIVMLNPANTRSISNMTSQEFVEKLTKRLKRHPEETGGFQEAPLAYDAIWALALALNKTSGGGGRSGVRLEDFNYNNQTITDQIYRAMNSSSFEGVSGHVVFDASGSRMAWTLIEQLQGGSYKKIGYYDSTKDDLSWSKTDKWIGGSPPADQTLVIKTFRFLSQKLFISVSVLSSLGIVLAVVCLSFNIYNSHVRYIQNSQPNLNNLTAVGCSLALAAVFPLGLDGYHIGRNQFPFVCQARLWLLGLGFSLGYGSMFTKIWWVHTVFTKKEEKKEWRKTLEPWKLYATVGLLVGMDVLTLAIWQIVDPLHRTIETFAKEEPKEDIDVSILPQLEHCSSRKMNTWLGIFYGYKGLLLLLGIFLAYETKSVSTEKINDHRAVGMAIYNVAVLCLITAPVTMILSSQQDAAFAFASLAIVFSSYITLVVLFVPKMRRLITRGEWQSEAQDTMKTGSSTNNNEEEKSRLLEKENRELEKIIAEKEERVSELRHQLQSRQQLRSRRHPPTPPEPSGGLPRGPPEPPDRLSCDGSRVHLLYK
Chain of hGABABR1a/GABABR2 receptor (CHO membranes) (O75899 42-941): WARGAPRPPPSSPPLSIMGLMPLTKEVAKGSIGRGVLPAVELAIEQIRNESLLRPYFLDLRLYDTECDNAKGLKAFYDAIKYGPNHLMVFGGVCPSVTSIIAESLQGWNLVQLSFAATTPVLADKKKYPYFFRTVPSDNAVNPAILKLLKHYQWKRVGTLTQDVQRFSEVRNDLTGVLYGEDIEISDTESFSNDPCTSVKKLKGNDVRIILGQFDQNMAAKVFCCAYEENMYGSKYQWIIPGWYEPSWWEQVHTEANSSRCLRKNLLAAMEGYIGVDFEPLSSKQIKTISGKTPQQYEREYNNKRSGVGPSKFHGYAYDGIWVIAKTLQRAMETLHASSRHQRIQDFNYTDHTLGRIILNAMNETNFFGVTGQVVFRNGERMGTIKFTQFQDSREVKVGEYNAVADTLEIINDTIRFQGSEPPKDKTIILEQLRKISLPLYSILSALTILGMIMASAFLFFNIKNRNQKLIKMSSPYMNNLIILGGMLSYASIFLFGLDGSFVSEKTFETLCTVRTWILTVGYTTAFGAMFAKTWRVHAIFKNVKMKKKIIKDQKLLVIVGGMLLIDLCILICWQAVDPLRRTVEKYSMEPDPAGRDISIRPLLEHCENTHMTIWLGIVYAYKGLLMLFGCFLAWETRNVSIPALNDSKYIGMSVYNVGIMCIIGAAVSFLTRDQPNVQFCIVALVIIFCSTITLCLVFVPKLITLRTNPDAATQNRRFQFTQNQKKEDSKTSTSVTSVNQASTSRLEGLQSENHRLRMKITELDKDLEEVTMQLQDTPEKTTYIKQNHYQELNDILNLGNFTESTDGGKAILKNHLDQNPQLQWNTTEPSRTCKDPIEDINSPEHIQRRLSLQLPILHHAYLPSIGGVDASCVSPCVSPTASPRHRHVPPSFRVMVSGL
Method: (§1) Butyrate-stimulated (5 mM final) cells were scraped, after a short rinse with PBS, in 50 mM TrisHCl pH7.4 and centrifuged at 23500 g for 10 min. at 4° C. The pellet was homogenised in 5 mM TrisHCI pH 7.4 by Ultra-Turrax (24000 rpm) followed by centrifugation at 30000 g for 20 min. at 4° C. The resulting pellet was resuspended in 50 mM TrisHCl pH 7.4 and rehomogenised. Protein concentration was determined using the Bradford method.
Filters were rinsed 6 times with cold 10 mM phosphate buffer pH 7.4, and dried overnight before addition of 30 μl Microscint O, and measurement in Topcount (Packard, 1 min./well).

[4] = biological target: hGABABR1a/R2 heterodimeric GABAB receptor (CHO membranes) (Homo sapiens, UniProt O75899+Q9UBS5); assay: biochemical
Chain of hGABABR1a/R2 heterodimeric GABAB receptor (CHO membranes) (Q9UBS5 20-961): as the sequence (Q9UBS5 20-961) above
Chain of hGABABR1a/R2 heterodimeric GABAB receptor (CHO membranes) (O75899 42-941): as the sequence (O75899 42-941) above
Method: as §1
An agonist filter binding assay has been developed in 96-well GF/B filterplate.

[5] = biological target: GABAB receptor expressed by the hGABABR1a/GABABR2 CHO cell line (Homo sapiens, UniProt O75899+Q9UBS5); conditions: 10 μM in saturation assay, FIGS. 4a, b
Chain of GABAB receptor expressed by the hGABABR1a/GABABR2 CHO cell line (Q9UBS5 20-961): as the sequence (Q9UBS5 20-961) above
Chain of GABAB receptor expressed by the hGABABR1a/GABABR2 CHO cell line (O75899 42-941): as the sequence (O75899 42-941) above
Method: Agonist centrifugation Binding AssayIn an alternative binding assay the non-bound ligand was separated from the membranes by centrifugation instead of filtration. The assay was performed according to the earlier described filter binding assay, with the difference that the non-bound ligand was separated from the membranes by centrifugation in a microcentrifuge at 12500 rpm for 10 minutes. The supernatant was discarded, the pellet was rinsed with washing buffer and dissolved in 200 μl water.

Chain of native GABAB receptor, Pig (A0A480I1B8 1-960): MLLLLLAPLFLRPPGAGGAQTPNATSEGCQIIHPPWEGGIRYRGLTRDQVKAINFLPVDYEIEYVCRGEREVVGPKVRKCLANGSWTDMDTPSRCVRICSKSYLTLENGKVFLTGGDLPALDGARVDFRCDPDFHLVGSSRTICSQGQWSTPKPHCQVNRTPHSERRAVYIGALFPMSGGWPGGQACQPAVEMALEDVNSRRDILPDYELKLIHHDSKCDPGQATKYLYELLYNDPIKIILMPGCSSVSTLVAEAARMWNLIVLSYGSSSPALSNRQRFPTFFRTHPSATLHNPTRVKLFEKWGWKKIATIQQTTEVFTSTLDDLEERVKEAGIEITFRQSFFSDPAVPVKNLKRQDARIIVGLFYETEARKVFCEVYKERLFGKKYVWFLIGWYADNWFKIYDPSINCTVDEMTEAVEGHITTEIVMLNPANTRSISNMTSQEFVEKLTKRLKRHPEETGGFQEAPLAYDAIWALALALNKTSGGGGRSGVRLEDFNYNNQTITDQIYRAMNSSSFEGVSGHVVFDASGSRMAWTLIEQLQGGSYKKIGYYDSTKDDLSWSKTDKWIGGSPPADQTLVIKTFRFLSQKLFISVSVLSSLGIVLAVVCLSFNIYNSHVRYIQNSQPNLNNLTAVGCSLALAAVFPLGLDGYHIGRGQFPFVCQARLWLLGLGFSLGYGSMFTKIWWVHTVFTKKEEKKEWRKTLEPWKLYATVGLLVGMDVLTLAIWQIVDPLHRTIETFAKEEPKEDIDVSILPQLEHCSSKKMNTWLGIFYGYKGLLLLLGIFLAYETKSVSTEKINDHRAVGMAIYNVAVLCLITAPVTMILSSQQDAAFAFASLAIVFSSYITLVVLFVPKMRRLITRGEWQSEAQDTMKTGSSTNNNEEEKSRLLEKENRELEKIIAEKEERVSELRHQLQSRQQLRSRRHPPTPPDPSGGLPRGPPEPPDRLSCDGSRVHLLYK
T1 sequence (Q9Z0U4 20-960): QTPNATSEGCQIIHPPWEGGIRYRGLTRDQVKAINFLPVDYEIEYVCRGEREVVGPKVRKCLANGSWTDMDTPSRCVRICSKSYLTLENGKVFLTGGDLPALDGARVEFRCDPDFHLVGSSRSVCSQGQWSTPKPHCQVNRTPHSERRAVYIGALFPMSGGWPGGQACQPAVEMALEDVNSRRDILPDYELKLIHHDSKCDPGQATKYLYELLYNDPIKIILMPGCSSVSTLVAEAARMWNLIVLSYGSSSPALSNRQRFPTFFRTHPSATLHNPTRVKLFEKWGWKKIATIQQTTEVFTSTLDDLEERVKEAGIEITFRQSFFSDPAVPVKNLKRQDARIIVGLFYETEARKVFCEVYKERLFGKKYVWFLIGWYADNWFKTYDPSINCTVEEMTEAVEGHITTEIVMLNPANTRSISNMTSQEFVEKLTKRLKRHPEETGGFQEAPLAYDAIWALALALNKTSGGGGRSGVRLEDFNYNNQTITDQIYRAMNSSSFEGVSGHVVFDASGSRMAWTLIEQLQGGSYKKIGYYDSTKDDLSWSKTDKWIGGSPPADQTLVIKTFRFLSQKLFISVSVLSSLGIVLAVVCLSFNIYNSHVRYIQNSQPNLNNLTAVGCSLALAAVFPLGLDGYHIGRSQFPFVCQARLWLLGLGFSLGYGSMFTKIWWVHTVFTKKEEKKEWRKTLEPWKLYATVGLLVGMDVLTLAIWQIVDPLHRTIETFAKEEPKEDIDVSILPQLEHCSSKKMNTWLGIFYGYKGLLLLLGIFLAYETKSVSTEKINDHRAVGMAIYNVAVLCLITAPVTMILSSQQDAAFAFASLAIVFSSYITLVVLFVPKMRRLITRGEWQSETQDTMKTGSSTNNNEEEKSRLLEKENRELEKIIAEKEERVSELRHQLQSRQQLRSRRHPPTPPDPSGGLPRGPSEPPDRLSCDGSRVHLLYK
T1 sequence (O88871 41-940 partner): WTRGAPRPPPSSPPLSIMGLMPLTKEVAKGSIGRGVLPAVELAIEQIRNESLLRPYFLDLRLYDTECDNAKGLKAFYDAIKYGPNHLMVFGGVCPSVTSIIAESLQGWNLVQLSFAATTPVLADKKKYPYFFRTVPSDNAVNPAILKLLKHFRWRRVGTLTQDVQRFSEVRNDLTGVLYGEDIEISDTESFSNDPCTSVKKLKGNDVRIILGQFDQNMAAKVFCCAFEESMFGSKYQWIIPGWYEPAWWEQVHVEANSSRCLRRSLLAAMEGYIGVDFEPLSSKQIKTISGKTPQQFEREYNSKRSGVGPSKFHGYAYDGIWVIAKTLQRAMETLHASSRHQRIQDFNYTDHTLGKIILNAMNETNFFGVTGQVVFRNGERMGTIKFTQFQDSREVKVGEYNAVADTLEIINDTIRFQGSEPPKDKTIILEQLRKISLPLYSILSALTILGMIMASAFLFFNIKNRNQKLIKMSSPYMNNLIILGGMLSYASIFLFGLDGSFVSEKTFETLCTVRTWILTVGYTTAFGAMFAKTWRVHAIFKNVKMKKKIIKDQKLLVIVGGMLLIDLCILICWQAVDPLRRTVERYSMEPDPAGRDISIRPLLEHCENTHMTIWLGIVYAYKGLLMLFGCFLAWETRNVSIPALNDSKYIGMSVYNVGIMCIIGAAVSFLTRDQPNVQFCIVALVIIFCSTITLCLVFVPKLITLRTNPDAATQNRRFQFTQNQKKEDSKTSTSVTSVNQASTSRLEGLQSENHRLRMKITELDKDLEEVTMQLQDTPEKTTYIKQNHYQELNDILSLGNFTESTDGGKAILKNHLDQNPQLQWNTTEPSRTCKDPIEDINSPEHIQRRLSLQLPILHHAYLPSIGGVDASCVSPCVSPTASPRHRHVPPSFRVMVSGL

| Compound | SIGNAL TRANSDUCTION GTPγS binding % Effect at 10 μM [3] [%] | IC50 [4] [nM] | other results |
| --- | --- | --- | --- |
| C[C@H](NC[C@H](O)CP(=O)(O)CC1CCCCC1)c1ccc(Cl)c(Cl)c1 [^3H-CGP54626] |  |  | Kd [1]: 1.35 nM; Kd [2]: 1.5 nM |
| CN(C)c1ncnc2c1N=C1CC(C)(C)CC(NCCCC(=O)O)=C1S2 [compound 1] |  |  | effect on 3H-GABA binding to both the high and the low affinity site [5]: blocked |
| NCCCC(=O)O [^3H-GABA] |  |  | Kd [1]: 26 nM |
| C[C@H](NC[C@H](O)CP(=O)(O)CC1CCCCC1)c1ccc(Cl)c(Cl)c1 [CGP54626, reference compound] |  |  | effect on 3H-GABA binding to both the high and the low affinity site [5]: blocked |
| CC(C)(CO)Cc1cc(C(C)(C)C)c(O)c(C(C)(C)C)c1 [CGP7930, reference compound] |  |  | effect on GABA-stimulated GTPγ35S binding ([3]; positive modulator, FIG. 1): potentiated |

Further lines, with some results ahead:

| SIGNAL TRANSDUCTION GTPγS binding % Effect at 10 μM [3] [%] | IC50 [4] [nM] | Compound | other results |
| --- | --- | --- | --- |
| 61.93 | 135 | CC1(C)CC2=Nc3c(Cl)ncnc3SC2=C(NCCCC(=O)O)C1 |  |
| 24.44 | 372 | CC1(C)CC2=Nc3ccccc3SC2=C(NCCCC(=O)O)C1 |  |
| 45.7275 | 64.9 | CN(C)c1ncnc2c1N=C1CC(C)(C)CC(NCCCC(=O)O)=C1S2 [drawing 15] |  |
| 40.95 | 151 | CC1(C)CC2=Nc3c(N)ncnc3SC2=C(NCCCC(=O)O)C1 |  |

From US20060216749A1, “Chimeric gaba receptor” (priority 2003, published 2006)
